≈ marks a conversion by molar mass, not a printed value. Structures can show the parent of a compound that is named as a salt. Where two headings read alike, the source gives them in different places.
Columns and labels:
[1] = test system: Rats model of deep vein thrombosis; experiment: Rat model of deep vein thrombosis (thrombus weight); type: in vivo, SD rats; conditions: for Thrombosis inhibition rate (%) / Thrombus weight: oral gavage
From the text: Experimental animals: SD rats (body weight 220 to 250 g, sex: male)
The thrombus was removed and weighed.

[2] = Moisture adsorption / hygroscopicity (DVS); type: physicochemical
[3] = Method: Experimental animals: SD rats (body weight 200 to 300 g, sex: half of male and half of female)
The doses of 5, 10 and 20 mg/kg were administered by gavage, and blood was collected from the jugular vein at 5 min, 10 min, 20 min, 30 min, 1 h, 2 h, 4 h, 6 h, 8 h, 12 h and 24 h after the administration of the drug, processed, and analyzed for blood drug level by LC-MS/MS.
Data were processed using Phoenix WinNonlin 6.4 non-compartmental model to calculate the pharmacokinetic parameters of rats after drug administration, including t1/2, AUC0-t, AUC0-∞, Cl/F or Clss/F or Cl, Vz/F or Vss, MRT, Cmax, C5min, Tmax, and Cmin, Cavg, and AUC0-τ for multiple administrations to reach steady state, etc.

Solubility determination = type: physicochemical
[4] = Blood drug level in the rat deep vein thrombosis model
Method: Preparation of solution: An appropriate amount of Form I was weighed, dissolved in a vehicle (0.5% (W/V) Natrosol™ 250 HX solution containing 0.1% (W/V) L(+)-tartaric acid) to formulate into the required concentration and then stirred uniformly, so that the drug was administered according to the predetermined dose.
Procedure: Rats were acclimatized for 3 days and randomly divided into three groups: model group, positive control group/subject group and bridging group, with 8 to 10 rats in each group. […] Rats in each group were anesthetized with urethane (20%, 5 mL/kg) via intraperitoneal injection. The abdominal cavity was exposed, the vena cava was bluntly separated, and two surgical sutures of 8 to 10 cm in length were placed under the blood vessels, both 1 cm apart. When the modeling time of each group was reached, rabbit thromboplastin (0.02 mg/kg) was injected into the left femoral vein, and the two sutures were knotted 10 s later, and the knotted portion of the suture was cut with ophthalmic scissors after 1 h. The thrombus was removed and weighed.

[5] = Accelerated stability test at 25 ± 2 °C, 60 ± 5% humidity; type: physicochemical
Method: The accelerated stability test data of the Form I at T = 25 ± 2 °C, 60 ± 5% humidity are as follows: […]

SMILES: CCCCCCOC(=O)N=C(N)c1ccc(NCc2nc3cc(C(=O)N(CCC(=O)OCC)c4ccccn4)ccc3n2C)cc1 [Dabigatran etexilate, reference compound]
- Thrombosis inhibition rate (%) ([1]; 5 mg/kg): 69.9%
- Thrombus weight ([1]; 5 mg/kg): 21.4 ± 8.2 mg

SMILES: CCCCCCOC(=O)NC(=N)c1ccc(CNC(=O)[C@@H]2CCCN2C(=O)[C@@H](CC(C)C)NCC(=O)OCC)cc1 [Form I]
- water absorption (DVS) ([2]; 80% RH): 28.8%
- water absorption (DVS) ([2]; 90% humidity): 49.9%
- solid form after DVS test ([2]; after DVS test): converted to amorphous form
- behaviour of the sample at high humidity (DVS) ([2]; high humidity): undergoes deliquescence
- Hygroscopicity ([2]; result in words): Hygroscopic
- AUC0-t (h·ng/mL) ([3]; gavage 5 mg/kg, Female): 850+226 h·ng/mL
- AUC0-∞ ([3]; gavage 5 mg/kg, Female): 854 ± 224 ng·h/mL
- Cl/F ([3]; gavage 5 mg/kg, Female): 104 ± 33 mL/min/kg
- Cmax ([3]; gavage 5 mg/kg, Female): 522 ± 170 ng/mL
- MRT0-t ([3]; gavage 5 mg/kg, Female): 1.6 ± 0.34 h
- MRT0-∞ (h) ([3]; gavage 5 mg/kg, Female): 1.7+0.38 h
- Tmax ([3]; gavage 5 mg/kg, Female): 0.59 ± 0.29 h
- V2/F ([3]; gavage 5 mg/kg, Female): 13.9 ± 6.75 L/kg
- t1/2 ([3]; gavage 5 mg/kg, Female): 1.5 ± 0.26 h
- AUC0-t ([3]; gavage 5 mg/kg, Male): 604 ± 182 ng·h/mL
- AUC0-∞ ([3]; gavage 5 mg/kg, Male): 606 ± 181 ng·h/mL
- Cl/F ([3]; gavage 5 mg/kg, Male): 147 ± 41.7 mL/min/kg
- Cmax ([3]; gavage 5 mg/kg, Male): 344 ± 163 ng/mL
- MRT0-t ([3]; gavage 5 mg/kg, Male): 1.6 ± 0.20 h
- MRT0-∞ ([3]; gavage 5 mg/kg, Male): 1.7 ± 0.21 h
- Tmax ([3]; gavage 5 mg/kg, Male): 0.66 ± 0.23 h
- V2/F ([3]; gavage 5 mg/kg, Male): 18.1 ± 6.08 L/kg
- t1/2 ([3]; gavage 5 mg/kg, Male): 1.4 ± 0.32 h
- AUC0-t ([3]; gavage 5 mg/kg, Total): 727 ± 231 ng·h/mL
- AUC0-∞ ([3]; gavage 5 mg/kg, Total): 730 ± 231 ng·h/mL
- Cl/F ([3]; gavage 5 mg/kg, Total): 126 ± 41.7 mL/min/kg
- Cmax ([3]; gavage 5 mg/kg, Total): 433 ± 181 ng/mL
- MRT0-t ([3]; gavage 5 mg/kg, Total): 1.6 ± 0.26 h
- MRT0-∞ ([3]; gavage 5 mg/kg, Total): 1.7 ± 0.28 h
- Tmax ([3]; gavage 5 mg/kg, Total): 0.62 ± 0.24 h
- V2/F ([3]; gavage 5 mg/kg, Total): 16.0 ± 6.37 L/kg
- t1/2 ([3]; gavage 5 mg/kg, Total): 1.5 ± 0.27 h
- AUC0-t ([3]; gavage 10 mg/kg, Female): 2060 ± 783 ng·h/mL
- AUC0-∞ ([3]; gavage 10 mg/kg, Female): 1830 ng·h/mL
- Cl/F ([3]; gavage 10 mg/kg, Female): 92.3 mL/min/kg
- Cmax ([3]; gavage 10 mg/kg, Female): 1120 ± 385 ng/mL
- MRT0-t ([3]; gavage 10 mg/kg, Female): 1.6 ± 0.27 h
- MRT0-∞ ([3]; gavage 10 mg/kg, Female): 1.6 h
- Tmax ([3]; gavage 10 mg/kg, Female): 0.75 ± 0.29 h
- V2/F ([3]; gavage 10 mg/kg, Female): 20.1 L/kg
- t1/2 ([3]; gavage 10 mg/kg, Female): 2.6 h
- AUC0-t ([3]; gavage 10 mg/kg, Male): 1460 ± 324 ng·h/mL
- AUC0-∞ ([3]; gavage 10 mg/kg, Male): 1460 ± 324 ng·h/mL
- Cl/F ([3]; gavage 10 mg/kg, Male): 118 ± 26.5 mL/min/kg
- Cmax ([3]; gavage 10 mg/kg, Male): 934 ± 299 ng/mL
- MRT0-t ([3]; gavage 10 mg/kg, Male): 1.6 ± 0.24 h
- MRT0-∞ ([3]; gavage 10 mg/kg, Male): 1.7 ± 0.20 h
- Tmax ([3]; gavage 10 mg/kg, Male): 0.63 ± 0.25 h
- V2/F ([3]; gavage 10 mg/kg, Male): 46.9 ± 24.6 L/kg
- t1/2 ([3]; gavage 10 mg/kg, Male): 4.5 ± 1.8 h
- AUC0-t ([3]; gavage 10 mg/kg, Total): 1760 ± 642 ng·h/mL
- AUC0-∞ ([3]; gavage 10 mg/kg, Total): 1590 ± 346 ng·h/mL
- Cl/F ([3]; gavage 10 mg/kg, Total): 110 ± 25.5 mL/min/kg
- Cmax ([3]; gavage 10 mg/kg, Total): 1030 ± 335 ng/mL
- MRT0-t ([3]; gavage 10 mg/kg, Total): 1.6 ± 0.24 h
- MRT0-∞ ([3]; gavage 10 mg/kg, Total): 1.7 ± 0.26 h
- Tmax ([3]; gavage 10 mg/kg, Total): 0.69 ± 0.26 h
- V2/F ([3]; gavage 10 mg/kg, Total): 38.0 ± 23.6 L/kg
- t1/2 ([3]; gavage 10 mg/kg, Total): 3.9 ± 1.8 h
- AUC0-t ([3]; gavage 20 mg/kg, Female): 3840 ± 446 ng·h/mL
- AUC0-∞ (h·ng/mL) ([3]; gavage 20 mg/kg, Female): 3850+446 h·ng/mL
- Cl/F ([3]; gavage 20 mg/kg, Female): 87.5 ± 10.2 mL/min/kg
- Cmax ([3]; gavage 20 mg/kg, Female): 2170 ± 380 ng/mL
- MRT0-t (h) ([3]; gavage 20 mg/kg, Female): 1.7+0.19 h
- MRT0-∞ ([3]; gavage 20 mg/kg, Female): 1.8 ± 0.18 h
- Tmax ([3]; gavage 20 mg/kg, Female): 0.50 ± 0.0 h
- V2/F ([3]; gavage 20 mg/kg, Female): 30.8 ± 5.67 L/kg
- t1/2 ([3]; gavage 20 mg/kg, Female): 4.0 ± 0.35 h
- AUC0-t (h·ng/mL) ([3]; gavage 20 mg/kg, Male): 4650+2440 h·ng/mL
- AUC0-∞ ([3]; gavage 20 mg/kg, Male): 4660 ± 2440 ng·h/mL
- Cl/F ([3]; gavage 20 mg/kg, Male): 83 ± 29.8 mL/min/kg
- Cmax ([3]; gavage 20 mg/kg, Male): 2230 ± 531 ng/mL
- MRT0-t ([3]; gavage 20 mg/kg, Male): 1.8 ± 0.33 h
- MRT0-∞ ([3]; gavage 20 mg/kg, Male): 1.8 ± 0.32 h
- Tmax ([3]; gavage 20 mg/kg, Male): 0.88 ± 0.25 h
- V2/F ([3]; gavage 20 mg/kg, Male): 26.6 ± 17.0 L/kg
- t1/2 ([3]; gavage 20 mg/kg, Male): 3.7 ± 1.7 h
- AUC0-t ([3]; gavage 20 mg/kg, Total): 4250 ± 1680 ng·h/mL
- AUC0-∞ ([3]; gavage 20 mg/kg, Total): 4250 ± 1680 ng·h/mL
- Cl/F ([3]; gavage 20 mg/kg, Total): 85.3 ± 20.8 mL/min/kg
- Cmax ([3]; gavage 20 mg/kg, Total): 2200 ± 429 ng/mL
- MRT0-t ([3]; gavage 20 mg/kg, Total): 1.8 ± 0.25 h
- MRT0-∞ ([3]; gavage 20 mg/kg, Total): 1.8 ± 0.25 h
- Tmax ([3]; gavage 20 mg/kg, Total): 0.69 ± 0.26 h
- V2/F ([3]; gavage 20 mg/kg, Total): 28.7 ± 11.9 L/kg
- t1/2 ([3]; gavage 20 mg/kg, Total): 3.9 ± 1.2 h
- Solubility (Solubility determination; AC (Acetic acid)): >250 mg/mL
- Solubility (Solubility determination; ACN): >250 mg/mL
- Solubility (Solubility determination; DMSO): >250 mg/mL
- Solubility (Solubility determination; Diox): ~125 mg/mL (≈ 218 mM)
- Solubility (Solubility determination; EA): <0.3 mg/mL
- Solubility (Solubility determination; EtOH): >250 mg/mL
- Solubility (Solubility determination; Hept): <0.3 mg/mL
- Solubility (Solubility determination; IPA): ~167 mg/mL (≈ 291 mM)
- Solubility (Solubility determination; MEK): ~1.6 mg/mL (≈ 2.79 mM)
- Solubility (Solubility determination; MTBE): <0.3 mg/mL
- Solubility (Solubility determination; NBA): ~167 mg/mL (≈ 291 mM)
- Solubility (Solubility determination; THF): ~11.1 mg/mL (≈ 19.3 mM)
- Solubility (Solubility determination; Tol): <0.3 mg/mL
- Solubility (Solubility determination; Water): >250 mg/mL
- Solubility (Solubility determination; acetonitrile and dichloromethane): readily soluble
- Solubility (Solubility determination; buffer solutions with different pH values (1.2 to 13.0)): Highly soluble
- Solubility (Solubility determination; n-heptane and N, N-diisopropyl ethylamine): almost insoluble or insoluble
- Blood drug level ([4]; level of compound V after oral 2.5 mg/kg Form I, 2.5 mg/kg): 190.1 ng/mL
- Blood drug level ([4]; level of compound V after oral 2.5 mg/kg Form I, listed as Crystal form I, 2.5 mg/kg): 190.1 ± 62.9 ng/mL
- Blood drug level ([4]; level of compound V after oral 5 mg/kg Form I, 5 mg/kg): 181.3 ng/mL
- Blood drug level ([4]; level of compound V after oral 10 mg/kg Form I, 10 mg/kg): 341.9 ng/mL
- Blood drug level ([4]; level of compound V after oral 10 mg/kg Form I, listed as Crystal form I, 10 mg/kg): 341.9 ± 46.4 ng/mL
- Blood drug level ([4]; level of compound V after oral 20 mg/kg Form I, 20 mg/kg): 609.7 ng/mL
- Blood drug level ([4]; level of compound V after oral 20 mg/kg Form I, listed as Crystal form I, 20 mg/kg): 609.7 ± 174.0 ng/mL
- Content (HPLC) ([5]; 0 month): 99.6%
- Hydrolyzed impurities ([5]; 0 month): 0.19%
- Moisture ([5]; 0 month): 0.4%
- Other individual impurities ([5]; 0 month): <RL(0.05%)
- Total impurities ([5]; 0 month): 0.42%
- Content (HPLC) ([5]; 1 month): 99.3%
- Hydrolyzed impurities ([5]; 1 month): 0.27%
- Moisture ([5]; 1 month): 0.5%
- Other individual impurities ([5]; 1 month): <RL(0.05%)
- Total impurities ([5]; 1 month): 0.54%
- Content (HPLC) ([5]; 2 months): 100.3%
- Hydrolyzed impurities ([5]; 2 months): 0.28%
- Moisture ([5]; 2 months): 0.3%
- Other individual impurities ([5]; 2 months): <RL(0.05%)
- Total impurities ([5]; 2 months): 0.56%
- Content (HPLC) ([5]; 3 months): 100.3%
- Hydrolyzed impurities ([5]; 3 months): 0.45%
- Moisture ([5]; 3 months): 0.4%
- Other individual impurities ([5]; 3 months): <RL(0.05%)
- Total impurities ([5]; 3 months): 0.72%
- Content (HPLC) ([5]; 6 months): 99.6%
- Hydrolyzed impurities ([5]; 6 months): 0.51%
- Moisture ([5]; 6 months): 0.3%
- Other individual impurities ([5]; 6 months): <RL(0.05%)
- Total impurities ([5]; 6 months): 1.02%
- Thrombosis inhibition rate (%) ([1]; 2.5 mg/kg): 27.0%
- Thrombus weight ([1]; 2.5 mg/kg): 51.9 ± 8.3 mg
- Thrombosis inhibition rate (%) ([1]; 5 mg/kg): 54.7%
- Thrombus weight ([1]; 5 mg/kg): 32.1 ± 5.7 mg
- Thrombus weight ([1]; 10 mg/kg): 21.3 ± 5.1 mg
- Thrombosis inhibition rate (%) ([1]; 20 mg/kg): 79.7%
- Thrombus weight ([1]; 20 mg/kg): 14.4 ± 3.6 mg
- antithrombotic efficacy compared with dabigatran etexilate ([1]; at the same dose): basically equivalent

SMILES: CCCCCCOC(=O)NC(=N)c1ccc(CNC(=O)[C@@H]2CCCN2C(=O)[C@@H](CC(C)C)NCC(=O)OCC)cc1 [dihydrochloride]
- aqueous solubility (Solubility determination; water, result in words): excellent aqueous solubility

From EP4667482A1, “SALT OF DIPEPTIDE COMPOUND, PREPARATION METHOD THEREFOR, AND USE THEREOF” (Zhejiang Huahai Pharmaceutical Co., Ltd., priority 2023, dated 2024)
